Measured values: the CombiSolv-Exp solvation set (Vermeire and Green 2021)

Assay: solvent given as SMILES

c1ccccc1
Conditions | solvation free energy, 298 K [kcal/mol]
in BrC(Br)C(Br)Br | -4.27
in Brc1cccc2ccccc12 | -4.1
in C1=CCCCC1 | -4.37
in C1=Cc2ccccc2C1 | -4.39
in C1CCC(C2CCCCC2)CC1 | -3.96
in C1CCCCC1 | -4.21
in C1CCOC1 | -4.75
in C1COCCO1 | -4.53
in C=CCCCCCCCCCCCCCC | -3.83
in CC1CCCC1 | -4.19
in CC1CCS(=O)(=O)C1 | -4.11
in CC1COC(=O)O1 | -3.88
in CC#N | -4.25
in CC(=O)CC(C)C | -4.44
in CC(=O)N(C)C | -4.29
in CC(=O)O | -3.94
in CC(=O)OCc1ccccc1 | -4.26
in CC(=O)c1ccccc1 | -4.28
in CC(C)(C)O | -3.71
in CC(C)=O | -4.42
in CC(C)CC(C)(C)C | -3.95
in CC(C)CCCC(C)CCCC(C)CCCCC(C)CCCC(C)CCCC(C)C | -3.69
in CC(C)CO | -3.71
in CC(C)O | -3.71
in CC(O)CO | -3.21
in CCC#N | -4.47
in CCC(C)=O | -4.49
in CCC(C)O | -3.78
in CCCC#N | -4.29
in CCCCC#N | -4.42
in CCCCC(CC)COC(=O)CCCCC(=O)OCC(CC)CCCC | -4.09
in CCCCC(CC)COC(=O)c1ccccc1C(=O)OCC(CC)CCCC | -3.9
in CCCCCC | -4.03
in CCCCCC#N | -4.36
in CCCCCCC | -4
in CCCCCCCC | -3.96
in CCCCCCCCCC | -3.98
in CCCCCCCCCCCC | -3.85
in CCCCCCCCCCCCCCCC | -3.82
in CCCCCCCCCCCCO | -3.74
in CCCCCCCCCCO | -3.59
in CCCCCCCCCOC(=O)c1ccccc1C(=O)OCCCCCCCCC | -3.98
in CCCCCCCCO | -3.81
in CCCCCCCO | -3.83
in CCCCCO | -3.86
in CCCCCl | -4.46
in CCCCN(C=O)CCCC | -4.26
in CCCCOC(=O)c1ccccc1C(=O)OCCCC | -4.23
in CCCCOC(C)=O | -3.87
in CCCCOCCCC | -4.11
in CCCO | -3.84
in CCN1CCCC1=O | -4.5
in CCN(CC)C(C)=O | -4.39
in CCNC(C)=O | -4
in CCNC=O | -3.94
in CCO | -3.88
in CCOC(=O)c1ccccc1C(=O)OCC | -4.06
in CCOC(C)=O | -4.42
in CN1CCCC1=O | -4.43
in CN1CCCCC1=O | -4.47
in CN(C)P(=O)(N(C)C)N(C)C | -4.31
in CNC(C)=O | -3.87
in CNC=O | -3.83
in CO | -3.85
in COC(=O)OC | -4.41
in COC(C)(C)C | -4.31
in COC(C)=O | -4.38
in COCCO | -4.02
in CS(C)=O | -3.96
in Cc1ccc(C)cc1 | -4.37
in Cc1cccc2ccccc12 | -4.17
in Cc1cccc(C)c1 | -4.36
in Cc1cccc(O)c1 | -4
in Cc1ccccc1 | -4.47
in ClC(Cl)(Cl)Cl | -4.42
in ClC(Cl)C(Cl)Cl | -4.59
in ClC(Cl)Cl | -4.79
in ClCBr | -4.74
in ClCCCl | -4.59
in ClCCl | -4.8
in Clc1cccc2ccccc12 | -4.07
in Clc1ccccc1 | -4.44
in N#CCCCC#N | -3.59
in N#CCCCCC#N | -3.92
in N#CCCO | -3.5
in N#CCc1ccccc1 | -4.13
in N#Cc1ccccc1 | -4.35
in NC=O | -2.69
in NCCN | -3.63
in NCCO | -3.09
in NCc1ccccc1 | -4.23
in Nc1ccccc1 | -4.07
in O | -0.87
in O=C1CCCCC1 | -4.55
in O=C1CCCO1 | -4.16
in O=C(O)C(Cl)Cl | -4.09
in O=CN1CCOCC1 | -4.02
in O=Cc1ccco1 | -4.04
in OC1CCCCC1 | -3.85
in OCC1CCCO1 | -4.04
in OCCCCCO | -3.33
in OCCCCO | -3.36
in OCCCO | -3.12
in OCCCl | -3.65
in OCCO | -2.76
in OCCOCCO | -3.38
in OCCOCCOCCO | -3.43
in OCCOCCOCCOCCO | -3.56
in OCCS | -3.62
in OCCc1ccccc1 | -3.96
in OCc1ccccc1 | -3.94
in OCc1ccco1 | -3.89
in S=C=S | -4.51
in [2H]O[2H] | -1.01
in c1ccc2c(c1)CCCC2 | -4.33
in c1ccc2ncccc2c1 | -4.31
in c1ccc(C2CCCCC2)cc1 | -4.19
in c1ccncc1 | -4.51
in c1ccsc1 | -4.61
